Ki data for 18 compounds are collected here from patent US8173652B2, “Isoxazole-isoxazoles and isoxazole-isothiazoles” (Hoffmann-La Roche Inc., priority 2009, dated 2012).

This assay has as its target T1, human GABA A receptor α5β3γ2 (Homo sapiens, UniProt P18507+P31644).
T1 construct: expressed in transfected cells; host or cells: HEK293 (transiently transfected), membrane preparation
Kind of assay: [3H]flumazenil competition binding assay, human GABA A α5 receptor. To be noted: human α5β3γ2 receptors transiently transfected in HEK293 cells; displacement of [3H]flumazenil 0.5 nM; 1 hour at 4° C.; means of two determinations; read-out: hKi GABA A α5. The method, then: Membrane Preparation and Binding Assay
The affinity of compounds at GABA A receptor subtypes was measured by competition for [3H]flumazenil (85 Ci/mmol; Roche) binding to HEK293 cells expressing rat (stably transfected) or human (transiently transfected) receptors of composition α1β3γ2, α2β3γ2, α3β3γ2 and α5β3γ2.
Cell pellets were suspended in Krebs-tris buffer (4.8 mM KCl, 1.2 mM CaCl2, 1.2 mM MgCl2, 120 mM NaCl, 15 mM Tris; pH 7.5; binding assay buffer), homogenized by polytron for ca. 20 sec on ice and centrifuged for 60 min at 4° C. (50000 g; Sorvall, rotor: SM24=20000 rpm). The cell pellets were re-suspended in Krebs-tris buffer and homogenized by polytron for ca. 15 sec on ice. Protein was measured (Bradford method, Bio-Rad) and aliquots of 1 mL were prepared and stored at −80° C.
Radioligand binding assays were carried out in a volume of […] (96-well plates) which contained […] of cell membranes, [^3H]flumazenil at a concentration of 1 nM for α1, α2 and α3 subunits and 0.5 nM for α5 subunits and the test compound in the range of […]. Nonspecific binding was defined by 10^−5 M diazepam and typically represented less than 5% of the total binding. Assays were incubated to equilibrium for 1 hour at 4° C. and harvested onto GF/C uni-filters (Packard) by filtration using a Packard harvester and washing with ice-cold wash buffer (50 mM Tris; pH 7.5). After drying, filter-retained radioactivity was detected by liquid scintillation counting. Ki values were calculated using Excel-Fit (Microsoft) and are the means of two determinations.
A general note: In a radioligand displacement assay an active substance lowers the binding of a labelled ligand.
As for `CCCCc1noc(C)c1COc1cc(C(=O)N[C@@H](C)CO)on1` [Example 26, 3-(3-Butyl-5-methyl-isoxazol-4-ylmethoxy)-isoxazole-5-carboxylic acid ((S)-2-hydroxy-1-methyl-ethyl)-amide], the Ki was 22.7 nM.

`CCCCc1noc(C)c1COc1cc(C(=O)N[C@H](C)CO)on1` [Example 27, 3-(3-Butyl-5-methyl-isoxazol-4-ylmethoxy)-isoxazole-5-carboxylic acid ((R)-2-hydroxy-1-methyl-ethyl)-amide]: the Ki was 38 nM.

As for `CCCCc1noc(C)c1COc1cc(C(=O)NC(C)C)on1` [Example 28, 3-(3-Butyl-5-methyl-isoxazol-4-ylmethoxy)-isoxazole-5-carboxylic acid isopropylamide], the Ki turned out to be 24.6 nM.

`CCCCc1noc(C)c1COc1cc(C(=O)NC2CCOC2)on1` (stereo not drawn) [Example 29, 3-(3-Butyl-5-methyl-isoxazol-4-ylmethoxy)-isoxazole-5-carboxylic acid (tetrahydro-furan-3-yl)-amide]: the Ki is 8.5 nM.

Regarding `CCCCc1noc(C)c1COc1cc(C(=O)NN(C)C)on1` [Example 32, 3-(3-Butyl-5-methyl-isoxazol-4-ylmethoxy)-isoxazole-5-carboxylic acid N′,N′-dimethyl-hydrazide], the Ki was found to be 56.8 nM.

`CCCCc1noc(C)c1COc1cc(C(=O)NN2CCOCC2)on1` [Example 33, 3-(3-Butyl-5-methyl-isoxazol-4-ylmethoxy)-isoxazole-5-carboxylic acid morpholin-4-ylamide]: the Ki was found to be 10.4 nM.

On to `Cc1onc(-c2ccccc2)c1COc1cc(C(=O)NC(C)C)sn1` [Example 34, 3-(5-Methyl-3-phenyl-isoxazol-4-ylmethoxy)-isothiazole-5-carboxylic acid isopropylamide], for which the Ki turned out to be 28 nM.

For the compound `Cc1onc(-c2ccccc2)c1COc1cc(C(=O)NCCO)sn1` [Example 35, 3-(5-Methyl-3-phenyl-isoxazol-4-ylmethoxy)-isothiazole-5-carboxylic acid (2-hydroxy-ethyl)-amide], the Ki turned out to be 35 nM.

Turning to `Cc1onc(-c2ccccn2)c1COc1cc(C(=O)NC(C)C)sn1` [Example 36, 3-(5-Methyl-3-pyridin-2-yl-isoxazol-4-ylmethoxy)-isothiazole-5-carboxylic acid isopropyl-amide], the Ki turned out to be 15 nM.

Turning to `Cc1onc(-c2ccccn2)c1COc1cc(C(=O)NCCO)sn1` [Example 37, 3-(5-Methyl-3-pyridin-2-yl-isoxazol-4-ylmethoxy)-isothiazole-5-carboxylic acid (2-hydroxy-ethyl)-amide], the Ki was found to be 17.6 nM.

Consider `Cc1onc(-c2ccc(F)cn2)c1COc1cc(C(=O)NC(C)C)sn1` [Example 38, 3-[3-(5-Fluoro-pyridin-2-yl)-5-methyl-isoxazol-4-ylmethoxy]-isothiazole-5-carboxylic acid isopropylamide], for which the Ki turned out to be 11.8 nM.

On to `Cc1onc(-c2ccc(F)cn2)c1COc1cc(C(=O)NCCO)sn1` [Example 39, 3-[3-(5-Fluoro-pyridin-2-yl)-5-methyl-isoxazol-4-ylmethoxy]-isothiazole-5-carboxylic acid (2-hydroxy-ethyl)-amide], for which the Ki stood at 13 nM.

With `Cc1onc(-c2ccc(F)cn2)c1COc1cc(C(=O)NC2CCOC2)sn1` (stereo not drawn) [Example 40, 3-[3-(5-Fluoro-pyridin-2-yl)-5-methyl-isoxazol-4-ylmethoxy]-isothiazole-5-carboxylic acid (tetrahydro-furan-3-yl)-amide], the Ki worked out at 3.8 nM.

Take `CCCCc1noc(C)c1COc1cc(C(=O)NC2CCOC2)sn1` (stereo not drawn) [Example 41, 3-(3-Butyl-5-methyl-isoxazol-4-ylmethoxy)-isothiazole-5-carboxylic acid (tetrahydro-furan-3-yl)-amide]: the Ki stood at 28.9 nM.

As to `Cc1onc(-c2ccc(F)cc2)c1COc1cc(C(=O)N2CC3(COC3)C2)on1` [Example 42, {3-[3-(4-Fluoro-phenyl)-5-methyl-isoxazol-4-ylmethoxy]-isoxazol-5-yl}-(2-oxa-6-aza-spiro[3.3]hept-6-yl)-methanone], the Ki came to 9.8 nM.

In the case of `CC(C)NC(=O)c1cc(OCc2c(-c3ccc(F)cc3)noc2CO)no1` [Example 43, 3-[3-(4-Fluoro-phenyl)-5-hydroxymethyl-isoxazol-4-ylmethoxy]-isoxazole-5-carboxylic acid isopropylamide], the Ki came out at 8.8 nM.

Turning to `O=C(NC1CCOCC1)c1cc(OCc2c(-c3ccc(F)cc3)noc2CO)no1` [Example 44, 3-[3-(4-Fluoro-phenyl)-5-hydroxymethyl-isoxazol-4-ylmethoxy]-isoxazole-5-carboxylic acid (tetrahydro-pyran-4-yl)-amide], the Ki was 2.8 nM.

For `O=C(NCC(F)(F)F)c1cc(OCc2c(-c3ccc(F)cc3)noc2CO)no1` [Example 45, 3-[3-(4-Fluoro-phenyl)-5-hydroxymethyl-isoxazol-4-ylmethoxy]-isoxazole-5-carboxylic acid (2,2,2-trifluoro-ethyl)-amide], the Ki is 10 nM.
